The subject of experiment [1] is HER3 mRNA. The experiment in a line: real-time qPCR of HER3 mRNA. It counts as cell-based, human. To be noted: for HER3 mRNA/protein or pHER3: data not shown. As for the experimental part:
FIG. 12B depicts a bar chart of timed HER3 mRNA transcription in BT474 cells which were treated with 2 μM 5J8, 20 μM LY294002, and 50 nM rapamycin for 10 hours prior to RNA isolation and qPCR analysis with HER3-specific primers.

The subject of experiment [2] is HER3, pHER3^Y1289, pAKT^S473. In words: immunohistochemistry of BT474 xenografts. It counts as in vivo, mice. The settings on record: day 28. On the procedure:
FIG. 18B depicts photomicrographs of immunohistochemistry sections from formalin-fixed, paraffin-embedded tumor blocks. Xenografts were harvested on day 28, 1 hour after the last dose of lapatinib and/or compound A. Antibodies used were against HER3, pHER3^Y1289, and pAKT^S473. Photographs were taken at 400× magnification (scale bar: 50 μm).
All tumor samples (collected within 1 hour of last treatment) were fixed in 10% neutral buffered formalin for 24 hours at room temperature, followed by dehydration and paraffin embedding. Immunostaining was done on 5-μm tissue sections. After deparaffinization in xylene and graded alcohols heat-induced antigen retrieval was performed in a pH 6.0 citrate buffer followed by incubation with 3% hydrogen peroxide for 20 minutes, with protein block (Dako) for 10 minutes, and finally with primary antibody overnight at 4° C. The Envision Visualization System (Dako, Carpinteria, Calif., USA) was used, followed by DAB as chromagen and counterstained with hematoxylin. Tumor sections were studied on a light microscope with an ocular magnification of 400 times. Average percentage and intensity of tumor cell staining was calculated as a histoscore (H-score) (as described in Goulding, H., et al. (1995), Hum. Pathol. 26:291-294, which is incorporated herein by reference in its entirety). An expert pathologist (MGK) scoring the sections was blinded to the type of treatment.
Using immunohistochemistry (IHC), experiments were performed to examine pharmacodynamic biomarkers of target inactivation in xenografts after 28 days of treatment. […] Therefore, experiments were performed to quantify differences in pAKT^S473 expression in both cytoplasmic and nuclear compartments in xenograft sections.

The next experiment relates to BT474 xenografts. The experiment in a line: BT474 xenograft experiments. It counts as in vivo, mice. To be noted: trastuzumab 30 mg/kg twice-a-week i.p.; lapatinib 100 mg/kg daily; compound A 100 mg/kg daily gavage; 28 days.
In experiment [3] the test system is HER3 mRNA. The settings on record: ovarian cancer cells; cited from earlier work.

Regarding `CS(=O)(=O)CCNCc1ccc(-c2ccc3ncnc(Nc4ccc(OCc5cccc(F)c5)c(Cl)c4)c3c2)o1` [lapatinib, reference compound], the “HER3 mRNA levels” value with HER3 mRNA [1] (BT474, compound A 6 μM, lapatinib 1 μM, trastuzumab 10 μg/ml, 10 hours) was “markedly induced HER3 mRNA”. The “pHER3 by IHC” value in experiment [2] is “more effective than trastuzumab in reducing pHER3”. The “tumor growth, monotherapy” value in the experiment with BT474 xenografts is on record as “significantly delayed tumor growth”.

In the case of `CS(=O)(=O)N1CCN(Cc2cc3nc(-c4cccc5[nH]ncc45)nc(N4CCOCC4)c3s2)CC1` [GDC-0941], in the experiment on HER3 mRNA [3], the “HER3 mRNA downregulation by heregulin” value is “blocked downregulation of the HER3 mRNA”.

Turning to `O=C(NOCC1CC1)c1ccc(F)c(F)c1Nc1ccc(I)cc1Cl` [CI-1040], the “HER3 mRNA/protein or pHER3” value in the experiment on HER3 mRNA [1] is on record as “did not upregulate HER3 mRNA/protein or pHER3”.

In the case of `CO[C@H]1C[C@@H]2CC[C@@H](C)[C@@](O)(O2)C(=O)C(=O)N2CCCC[C@H]2C(=O)O[C@H]([C@H](C)C[C@@H]2CC[C@@H](OCCO)[C@H](OC)C2)CC(=O)[C@H](C)/C=C(\C)[C@@H](O)[C@@H](OC)C(=O)[C@H](C)C[C@H](C)/C=C/C=C/C=C/1C` [RAD001, everolimus], the “HER3 mRNA/protein or pHER3” value in the experiment on HER3 mRNA [1] is “did not upregulate HER3 mRNA/protein or pHER3”.
